From US6821991B2, “2-substituted thiazolidinones as β-3 adrenergic receptor agonists” (Wyeth, priority 2000, dated 2004) come the findings set out here.

In one data set the target is T1, β3-adrenergic receptor (Homo sapiens, UniProt P13945).
T1 construct: Full length β3 AR clones (402 amino acids) containing the last 6 amino acids of hβ3-AR are prepared; expressed in transfected cells; host or cells: CHO (Chinese hamster ovary) cells
Nature of the data set: cAMP accumulation (SPA) in CHO cells transfected with human β3 adrenergic receptor. The format is cell-based. Particulars: for EC50: CHO cells expressing human β3-AR, cAMP, 30 min, 37° C., 10^-9 M to 10^-5 M; for IA(β3): maximal response relative to maximal response of isoproterenol at 10^-5 M. Here is the method:
The ability of compounds of this invention to treat or inhibit disorders related to insulin resistance or hyperglycemia was established with representative compounds of this invention in the following standard pharmacological test procedures, which measured the binding selectivity to the β1, β2, and β3 adrenergic receptors. Binding to the receptors was measured in Chinese Hamster ovary (CHO) cells that were transfected with adrenergic receptors.
Cloning of Human β3-AR Genomic DNA: CDNA was constructed by ligating four polymerase chain reaction (PCR) products using the following primers: an ATG-Narl fragment, sense primer 5′-[…]3′, and anti-sense primer 5′[…]3′; a Narl-Accl fragment, 5′[…]3′ as sense and 5′[…]3′ as anti-sense primer; an Accli-Styl fragment, sense primer 5′[…]3′ and anti-sense primer 5′[…]3′ and a Styl-TAG fragment, with sense primer 5′[…]3′ and anti-sense primer 5′[…]3′. The corresponding primer sequences are described in Mantzoros, C. […] The four fragments are ligated into a pUC 18 plasmid (Gibco-BRL) and sequenced.
Binding Procedure: Clones expressing receptor levels of 70 to 110 fmoles/mg protein were used in the test procedures. CHO cells were grown in 24-well tissue culture plates in Dulbecco's Modified Eagle Media with 10% fetal bovine serum, MEM non-essential amino acids, Penicillin-Streptompycin and Geneticin. On the day of test procedure, growth medium was replaced with preincubation media (Dulbecco's Modified Eagle Media) and incubated for 30 minutes at 37° C. […] Test compounds were tested over a concentration range of 10^−9 M to 10^−5 M for β3 cells and 10^−8 to 10^−4 M for β1 and β2 transfected cells. Isoproterenol (10^−5 M) was used as an internal standard for comparison of activity. Cells were incubated at 37° C. on a rocker for 30 min with the β3 cells and 15 min for β1 and β2 cells. Incubation was stopped with the addition of 0.2N HCl and neutralized with 2.5N NaOH. The plates, containing the cells and neutralized media, were stored at −20 degrees celsius until ready to test for cAMP using the SPA test kit (Amersham).
Data Analysis and Results: Data collected from the SPA test procedure were analyzed as per cent of the maximal isoproterenol response at 10^−5 M. Activity curves were plotted using the SAS statistical and graphics software.
In general terms: Cyclic AMP is a second messenger, typically raised through Gs and lowered through Gi signalling.

T1 sequence (P13945 whole entry): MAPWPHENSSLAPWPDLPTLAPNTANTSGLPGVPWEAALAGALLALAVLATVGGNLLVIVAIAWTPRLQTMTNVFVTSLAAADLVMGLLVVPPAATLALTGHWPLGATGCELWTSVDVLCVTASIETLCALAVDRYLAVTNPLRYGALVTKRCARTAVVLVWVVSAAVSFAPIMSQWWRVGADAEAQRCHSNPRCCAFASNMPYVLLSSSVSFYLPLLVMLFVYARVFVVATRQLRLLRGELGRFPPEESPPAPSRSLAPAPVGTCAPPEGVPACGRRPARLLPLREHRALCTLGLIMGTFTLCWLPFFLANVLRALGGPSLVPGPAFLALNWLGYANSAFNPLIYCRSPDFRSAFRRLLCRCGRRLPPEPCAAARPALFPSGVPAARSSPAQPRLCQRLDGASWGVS

Broadly, the EC50 is the midpoint of the concentration-response curve. A higher EC50 goes with a need for much substance. As usually defined, the melting point is the temperature of the solid-liquid transition. For `O=C1N=C(NCCN2CCOCC2)SC1=Cc1ccc(N2CCC(NC[C@H](O)COc3cccc4[nH]c(=O)[nH]c34)CC2)cc1` [Example 2, 4-[(2S)-2-Hydroxy-3-(1-{4-[2-(2-morpholin-4-ylethylamino)-4-oxo-4H-thiazol-5-ylidenemethyl]-phenyl}-piperidin-4-ylamino)-propoxy]-1,3-dihydrobenzoimidazol-2-one], the melting point was > 140 °C (dec.). On β3-adrenergic receptor, the 50% effective concentration (EC50) amounted to 22 nM and the “IA(β3)” value is listed as 1.0.

`O=C1N=C(N2CCOCC2)SC1=Cc1ccc(N2CCC(NC[C@H](O)c3cccc(Cl)c3)CC2)cc1` [Example 25, 5-(4-{4-[(2R)-2-(3-Chloro-phenyl)-2-hydroxy-ethylamino]-piperidin-1-yl}-benzylidene)-2-morpholin-4-yl-thiazol-4-one]: the melting point is > 70 °C (dec.). Moreover, on β3-adrenergic receptor, the response was half-maximal at 450 nM (EC50) and the “IA(β3)” value is given as 0.51.

As for `Cl.O=C1N=C(N2CCCCC2)SC1=Cc1ccc(OCCNC[C@H](O)COc2ccc(O)cc2)cc1` [Example 31, 5-(4-{2-[(2S)-2-Hydroxy-3-(4-hydroxy-phenoxy)-propylamino]-ethoxy}-benzylidene)-2-piperidin-1-yl-thiazol-4-one hydrochloride salt], at β3-adrenergic receptor, the EC50 amounted to 210 nM and the “IA(β3)” value came out at 0.84.

Consider `O=C(O)CC[C@H](NC1=NC(=O)C(=Cc2ccc(N3CCC(NC[C@H](O)COc4cccc5[nH]c(=O)[nH]c45)CC3)cc2)S1)C(=O)O` [Example 29, (2S)-2-[5-(4-{4-[(2S)-2-Hydroxy-3-(2-oxo-2,3-dihydro-1H-benzoimidazol-4-yloxy)-propylamino]-piperidin-1-yl}-benzylidene)-4-oxo-4,5-dihydro-thiazol-2-ylamino]-pentanedioic acid], for which the melting point was > 270 °C (dec.). At β3-adrenergic receptor, the concentration for a half-maximal effect (EC50) was 17 nM and the “IA(β3)” value is reported as 0.91.

For `Cl.O=C1N=C(N2CCCCC2)SC1=Cc1ccc(OCCNC[C@H](O)COc2ccccc2)cc1` [Example 32, 5-{4-[2-((2S)-2-Hydroxy-3-phenoxy-propylamino)-ethoxy]-benzylidene}-2-piperidin-1-yl-thiazol-4-one hydrochloride salt], on β3-adrenergic receptor, the midpoint of the response, the EC50, lay at 88 nM and the “IA(β3)” value is 0.33.

As for `CCOC(=O)CC[C@H](NC1=NC(=O)C(=Cc2ccc(N3CCC(NC[C@H](O)c4ccc(O)c(NS(C)(=O)=O)c4)CC3)cc2)S1)C(=O)OCC` [Example 30, (2S)-2-[5-(4-{4-[(2R)-2-Hydroxy-2-(4-hydroxy-3-methanesulfonylamino-phenyl)-ethylamino]-piperidin-1-yl}-benzylidene)-4-oxo-4,5-dihydro-thiazol-2-ylamino]-pentanedioic acid diethyl ester], the melting point was > 130 °C (dec.). Also, at β3-adrenergic receptor, a half-maximal response (EC50) required 1 nM and the “IA(β3)” value was found to be 1.0.

Consider `Cl.Cl.O=C1N=C(N2CCOCC2)SC1=Cc1ccc(N2CCC(NC[C@H](O)COc3ccccc3)CC2)cc1` [Example 22, 5-{4-[4-((2S)-2-Hydroxy-3-phenoxy-propylamino)-piperidin-1-yl]-benzylidene}-2-morpholin-4-yl-thiazol-4-one dihydrochloride salt], for which the melting point was > 160 °C (dec.). At β3-adrenergic receptor, the EC50 was 40 nM and the “IA(β3)” value is given as 0.58.

With `O=C1N=C(NO)SC1=Cc1ccc(N2CCC(NC[C@H](O)COc3cccc4[nH]c(=O)[nH]c34)CC2)cc1` [Example 10, 4-((2S)-2-Hydroxy-3-{1-[4-(2-hydroxyamino-4-oxo-4H-thiazol-5-ylidenemethyl)-phenyl]-piperidin-4-ylamino}-propoxy)-1,3-dihydro-benzoimidazol-2-one], the melting point was 201 to 213 °C (dec.). On β3-adrenergic receptor, the EC50 was found to be 19 nM and the “IA(β3)” value is 0.69.

As for `CS(=O)(=O)Nc1cc(C(O)CNCCOc2ccc(C=C3SC(N4CCCCC4)=NC3=O)cc2)ccc1O` (centres unmarked) [Example 33, N-[2-Hydroxy-5-(1-hydroxy-2-{2-[4-(4-oxo-2-piperidin-1-yl-4H-thiazol-5-ylidenemethyl)-phenoxy]-ethylamino}-ethyl)-phenyl]-methanesulfonamide], at β3-adrenergic receptor, the midpoint of the response, the EC50, lay at 2 nM and the “IA(β3)” value amounted to 0.86.

As for `CN1CCN(C2=NC(=O)C(=Cc3ccc(N4CCC(NC[C@H](O)COc5ccc(O)cc5)CC4)cc3)S2)CC1` [Example 24, 5-(4-{4-[(2S)-2-Hydroxy-3-(4-hydroxy-phenoxy)-propylamino]-piperidin-1-yl}-benzylidene)-2-(4-methyl-piperazin-1-yl)-thiazol-4-one], the melting point is > 210 °C (dec.). Moreover, on β3-adrenergic receptor, the EC50 stood at 1920 nM and the “IA(β3)” value was determined as 1.0.

Consider `O=C1N=C(NC2CCN(Cc3ccccc3)CC2)SC1=Cc1ccc(N2CCC(NC[C@H](O)COc3ccc(O)cc3)CC2)cc1` [Example 4, 2-(1-Benzyl-piperidin-4-ylamino)-5-(4-{(2S)-4-[2-hydroxy-3-(4-hydroxy-phenoxy)-propylamino]-piperidin-1-yl}-benzylidene)-thiazol-4-one], for which the melting point was > 175 °C (dec.). Further, on β3-adrenergic receptor, the response was half-maximal at 230 nM (EC50) and the “IA(β3)” value was 0.6.

For `CCCCCCNC1=NC(=O)C(=Cc2ccc(N3CCC(NC[C@H](O)COc4ccccc4)CC3)cc2)S1` [Example 27, 2-Hexylamino-5-{4-[4-((2S)-2-hydroxy-3-phenoxy-propylamino)-piperidin-1-yl]-benzylidene}-thiazol-4-one], the melting point was 182 to 184 °C (dec.). The “IA(β3)” value at β3-adrenergic receptor is listed as 0.58.

With `O=C1N=C(N2CCOCC2)SC1=Cc1ccc(N2CCC(NC[C@H](O)COc3cccc4[nH]c(=O)[nH]c34)CC2)cc1` [Example 18, 4-((2S)-2-Hydroxy-3-{1-[4-(2-morpholin-4-yl-4-oxo-4H-thiazol-5-ylidenemethyl)-phenyl]-piperidin-4-ylamino}-propoxy)-1,3-dihydro-benzoimidazol-2-one], the melting point is > 150 °C (dec.). Moreover, on β3-adrenergic receptor, it took 3 nM to reach a half-maximal effect (EC50) and the “IA(β3)” value is on record as 0.89.

In the case of `CCOC(=O)CCNC1=NC(=O)C(=Cc2ccc(N3CCC(NC[C@H](O)COc4cccc5[nH]c(=O)[nH]c45)CC3)cc2)S1` [Example 8, 3-[5-(4-{4-[(2S)-2-Hydroxy-3-(2-oxo-2,3-dihydro-1H-benzoimidazol-4-yloxy)-propylamino]-piperidin-1-yl}-benzylidene)-4-oxo-4,5-dihydro-thiazol-2-ylamino]-propionic acid ethyl ester], the melting point is > 120 °C (dec.). Besides, on β3-adrenergic receptor, it took 8 nM to reach a half-maximal effect (EC50) and the “IA(β3)” value is on record as 0.75.

Turning to `CN1CCN(C2=NC(=O)C(=Cc3ccc(N4CCC(NC[C@H](O)COc5cccc6[nH]c(=O)[nH]c56)CC4)cc3)S2)CC1` [Example 19, 4-[(2S)-2-Hydroxy-3-(1-{4-[2-(4-methyl-piperazin-1-yl)-4-oxo-4H-thiazol-5-ylidenemethyl]-phenyl}-piperidin-4-ylamino)-propoxy]-1,3-dihydro-benzoimidazol-2-one], the melting point was > 150 °C (dec.).

Turning to `O=C(O)CCNC1=NC(=O)C(=Cc2ccc(N3CCC(NC[C@H](O)COc4cccc5[nH]c(=O)[nH]c45)CC3)cc2)S1` [Example 9, 3-[5-(4-{4-[(2S)-2-Hydroxy-3-(2-oxo-2,3-dihydro-1H-benzoimidazol-4-yloxy)-propylamino]-piperidin-1-yl}-benzylidene)-4-oxo-4,5-dihydro-thiazol-2-ylamino]-propionic acid], on β3-adrenergic receptor, the EC50 worked out at 7 nM and the “IA(β3)” value is on record as 0.81.
